Results from US8460669B2, “Compositions and methods for identifying response targets and treating flavivirus infection responses” (Academia Sinica, priority 2005, dated 2013).

Key:
[1] = molecular target: T1, DC-SIGN (Homo sapiens, UniProt Q9NNX6); test: Sugar competition, biotinylated DV binding to DC-SIGN-transfected 293T cells; assay type: cell-based; details: flow cytometry
T1 construct: expressed in transfected cells; host or cells: 293T cells
T1 sequence (Q9NNX6 1-404): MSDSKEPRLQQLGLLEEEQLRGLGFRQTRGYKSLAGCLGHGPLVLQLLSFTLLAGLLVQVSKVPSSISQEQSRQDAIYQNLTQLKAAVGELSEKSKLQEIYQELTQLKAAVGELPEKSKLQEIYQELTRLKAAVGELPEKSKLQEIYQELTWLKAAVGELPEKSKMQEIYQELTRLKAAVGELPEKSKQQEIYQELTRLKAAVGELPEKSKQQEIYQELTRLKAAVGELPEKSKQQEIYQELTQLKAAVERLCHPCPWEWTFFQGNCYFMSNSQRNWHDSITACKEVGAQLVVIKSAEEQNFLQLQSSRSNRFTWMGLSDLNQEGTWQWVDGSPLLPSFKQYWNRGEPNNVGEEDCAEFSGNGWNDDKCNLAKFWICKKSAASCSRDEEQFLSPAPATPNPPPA
Protocol: In FIG. 16b, complexes of DV (5×10^6 PFU) with receptor.Fc (5 μg) were immunoprecipitated and detected on westerns with mAb to DV envelope (E) protein. […] FIGS. 16d and 16e show sugar competition assays wherein both DC-SIGN (CLEC4L) and DVLR1/CLEC5A increase DV binding to human 293T cells (FIG. 16d), while addition of sugars inhibits biotinylated DV binding to DC-SIGN- (left panel) or DLVR1/CLEC5A- (right panel) transfected 293T cells in a dose-dependent manner as determined by flow cytometry (FIG. 16e). According to FIG. 16e, MFI represents mean fluorescence intensity. Units (U) for monosaccharide (mannose and fucose) and polysaccharide (mannan) are mM and mg/ml, respectively. […] Data are expressed as the mean±s.d. of three independent experiments. Two-tailed, Student's t-tests were performed.
There are two conserved N-linked glycosylation sites at Asn-67 and Asn-153 of E protein (Pokidysheva, E. et al., Cell 124:485-93 (2006)), and the attached glycans (with terminal fucose and mannose) have been implicated in cellular attachment and viral entry (Modis, Y. et al., J. Virol. 79:1223-1231 (2005)). To investigate the participation of glycans in the association of DVLR1/CLEC5A with DV, virions were incubated with fucose, mannose, or mannan; where the last two sugars are the ligands for DC-SIGN (Mitchell et al., J. Biol. Chem. 276: 28939-28945 ([…])).

[2] = molecular target: T2, DC-SIGNR.Fc (Homo sapiens, UniProt Q9H2X3); test: Immunosorbent dot binding assay with DC-SIGNR.Fc; details: polysaccharide immobilized on PVDF membrane; receptor.Fc 1 μg/mL
T2 construct: The extracellular domains of lectin receptors, TREMs and TLTs were cloned by the reverse-transcriptase polymerase chain reaction (RT-PCR); made in house; host or cells: 293-F (FreeStyle 293) cells
T2 sequence (Q9H2X3 71-399): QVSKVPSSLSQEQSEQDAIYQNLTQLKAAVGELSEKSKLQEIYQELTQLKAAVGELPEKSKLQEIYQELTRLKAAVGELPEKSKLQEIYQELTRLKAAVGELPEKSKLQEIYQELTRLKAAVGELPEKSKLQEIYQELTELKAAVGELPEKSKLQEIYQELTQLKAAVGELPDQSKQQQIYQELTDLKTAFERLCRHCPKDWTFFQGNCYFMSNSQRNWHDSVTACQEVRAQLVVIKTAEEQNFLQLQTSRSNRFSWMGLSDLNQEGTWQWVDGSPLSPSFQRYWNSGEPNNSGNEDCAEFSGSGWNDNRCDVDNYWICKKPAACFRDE

[3] = molecular target: T3, Dectin-1.Fc (Homo sapiens, UniProt Q9BXN2); test: Immunosorbent dot binding assay with Dectin-1.Fc
T3 construct: The extracellular domains of lectin receptors, TREMs and TLTs were cloned by the reverse-transcriptase polymerase chain reaction (RT-PCR); made in house; host or cells: 293-F (FreeStyle 293) cells
T3 sequence (Q9BXN2 66-247 limits assumed): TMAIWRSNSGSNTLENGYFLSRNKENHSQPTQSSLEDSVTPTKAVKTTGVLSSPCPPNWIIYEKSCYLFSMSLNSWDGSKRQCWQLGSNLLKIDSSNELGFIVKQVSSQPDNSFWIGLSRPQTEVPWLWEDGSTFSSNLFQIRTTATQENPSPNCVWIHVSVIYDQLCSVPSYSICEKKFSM

## mannan
[1]
  inhibition of the DC-SIGN-DV interaction: dose-dependent inhibition

## β-1,3-glucan [b-glucan]
[2]
  interaction with DC-SIGNR.Fc in dot-binding assay: only Dectin-1.Fc can bind
[3]; competitor 0.1 μg-1000 μg, or EDTA 10 mM in TBST
  inhibition of the interaction between Dectin-1.Fc and F3: inhibited
[3]; polysaccharide immobilized on PVDF membrane, receptor.Fc 1 μg/mL
  interaction with Dectin-1.Fc in dot-binding assay: can bind
